Source: ChEMBL document CHEMBL1201862, “PubChem BioAssay data set” (2004)
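Method: 48-hour compound exposure of cells in 96-well plates, five concentrations, linear interpolation of endpoints. GI50: concentration for 50% inhibition of growth.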 Active and inactive are the calls of the source. Cut-off read from the data, not from the text of the source: active = GI50 up to about 1.1 µM and inactive = higher.

Columns and labels:
Experiment in all cases: growth of human tumour cells (NCI), 48 h
HCC 2998 = tested on: HCC 2998
HL-60 = tested on: HL-60
HT-29 = tested on: HT-29
UACC-257 = tested on: UACC-257
OVCAR-4 = tested on: OVCAR-4
SK-MEL-5 = tested on: SK-MEL-5
786-0 = tested on: 786-0
SF-295 = tested on: SF-295
TK-10 = tested on: TK-10
SR = tested on: SR
SK-OV-3 = tested on: SK-OV-3
SNB-75 = tested on: SNB-75
SW-620 = tested on: SW-620
HOP-92 = tested on: HOP-92
HCT-15 = tested on: HCT-15
A549 = tested on: A549
SN12C = tested on: SN12C
HOP-62 = tested on: HOP-62
RPMI-8226 = tested on: RPMI-8226
NCI-H23 = tested on: NCI-H23
EKVX = tested on: EKVX
CAKI-1 = tested on: CAKI-1
MDA-MB-435 = tested on: MDA-MB-435
COLO 205 = tested on: COLO 205
Malme-3M = tested on: Malme-3M
RXF 393 = tested on: RXF 393
DU-145 = tested on: DU-145
MDA-N = tested on: MDA-N
SF-268 = tested on: SF-268
UACC-62 = tested on: UACC-62
OVCAR-8 = tested on: OVCAR-8
K562 = tested on: K562
MOLT-4 = tested on: MOLT-4
IGROV-1 = tested on: IGROV-1
PC-3 = tested on: PC-3
SK-MEL-28 = tested on: SK-MEL-28
LOX IMVI = tested on: LOX IMVI
T47D = tested on: T47D
MDA-MB-231 = tested on: MDA-MB-231
M14 = tested on: M14
CCRF-CEM = tested on: CCRF-CEM
MCF7 = tested on: MCF7
KM12 = tested on: KM12

For `O=C(Nc1ccccc1)C(=O)C(C(=O)c1ccccc1)C(c1ccccc1)c1ccccc1` (stereo not given), which GI50 (HCC 2998) is on record?
Its GI50 is > 10 µM (inactive).

What about the GI50 (HL-60) of the same compound?
Its GI50 is > 10 µM (inactive).

What about the GI50 (HT-29) of the same compound?
The GI50 was > 10 µM (inactive).

What about the GI50 (UACC-257) of the same compound?
The GI50 was > 10 µM (inactive).

And the GI50 (OVCAR-4)?
The GI50 was > 10 µM (inactive).

And the GI50 (SK-MEL-5)?
The GI50 was > 10 µM (inactive).

What about the GI50 (786-0) of the same compound?
The GI50 was > 10 µM (inactive).

And the GI50 (SF-295)?
The GI50 was > 10 µM (inactive).

What about the GI50 (TK-10) of the same compound?
Its GI50 is > 10 µM (inactive).

And the GI50 (SR)?
Its GI50 is > 10 µM (inactive).

What about the GI50 (SK-OV-3) of the same compound?
Its GI50 is > 10 µM (inactive).

And the GI50 (SNB-75)?
Its GI50 is > 10 µM (inactive).

What about the GI50 (SW-620) of the same compound?
The GI50 was > 10 µM (inactive).

And the GI50 (HOP-92)?
Its GI50 is > 10 µM (inactive).

What about the GI50 (HCT-15) of the same compound?
The GI50 was > 10 µM.

What about the GI50 (A549) of the same compound?
Its GI50 is > 10 µM (inactive).

What about the GI50 (SN12C) of the same compound?
The GI50 was > 10 µM (inactive).

What about the GI50 (HOP-62) of the same compound?
Its GI50 is > 10 µM (inactive).

And the GI50 (RPMI-8226)?
Its GI50 is > 10 µM (inactive).

And the GI50 (NCI-H23)?
The GI50 was > 10 µM (inactive).

And the GI50 (EKVX)?
The GI50 was > 10 µM (inactive).

And the GI50 (CAKI-1)?
The GI50 was > 10 µM (inactive).

And the GI50 (MDA-MB-435)?
The GI50 was > 10 µM (inactive).

What about the GI50 (COLO 205) of the same compound?
The GI50 was > 10 µM (inactive).

What about the GI50 (Malme-3M) of the same compound?
The GI50 was > 10 µM (inactive).

What about the GI50 (RXF 393) of the same compound?
The GI50 was > 10 µM (inactive).

What about the GI50 (DU-145) of the same compound?
The GI50 was > 10 µM (inactive).

And the GI50 (MDA-N)?
Its GI50 is > 10 µM (inactive).

And the GI50 (SF-268)?
Its GI50 is > 10 µM (inactive).

What about the GI50 (UACC-62) of the same compound?
The GI50 was > 10 µM (inactive).

What about the GI50 (OVCAR-8) of the same compound?
Its GI50 is > 10 µM (inactive).

What about the GI50 (K562) of the same compound?
Its GI50 is > 10 µM (inactive).

And the GI50 (MOLT-4)?
Its GI50 is > 10 µM (inactive).

And the GI50 (IGROV-1)?
The GI50 was > 10 µM (inactive).

What about the GI50 (PC-3) of the same compound?
The GI50 was > 10 µM (inactive).

What about the GI50 (SK-MEL-28) of the same compound?
The GI50 was > 10 µM (inactive).

What about the GI50 (LOX IMVI) of the same compound?
Its GI50 is > 10 µM (inactive).

What about the GI50 (T47D) of the same compound?
The GI50 was > 10 µM (inactive).

And the GI50 (MDA-MB-231)?
The GI50 was > 10 µM (inactive).

What about the GI50 (M14) of the same compound?
Its GI50 is > 10 µM (inactive).

What about the GI50 (CCRF-CEM) of the same compound?
Its GI50 is > 10 µM (inactive).

What about the GI50 (MCF7) of the same compound?
Its GI50 is > 10 µM (inactive).

Which results are given for `CSc1nc(C)c(CCOC(C)=O)c(N=P(c2ccccc2)(c2ccccc2)c2ccccc2)n1`?
GI50 (HCC 2998): > 10 µM (inactive); GI50 (HL-60): 2.82 µM (inactive); GI50 (HT-29): 4.07 µM (inactive); GI50 (UACC-257): 6.18 µM (inactive); GI50 (SK-MEL-5): 6.81 µM (inactive); GI50 (786-0): > 10 µM (inactive); GI50 (SF-295): > 10 µM (inactive); GI50 (TK-10): > 10 µM (inactive); GI50 (SR): 2.54 µM (inactive); GI50 (SK-OV-3): > 10 µM (inactive); GI50 (SNB-75): 4.28 µM (inactive); GI50 (SW-620): 4.97 µM (inactive); GI50 (HCT-15): 4.89 µM; GI50 (A549): 5.12 µM (inactive); GI50 (SN12C): 6.78 µM (inactive); GI50 (KM12): 3.72 µM (inactive); GI50 (HOP-62): 7.94 µM (inactive); GI50 (RPMI-8226): 3.14 µM (inactive); GI50 (NCI-H23): 3.77 µM (inactive); GI50 (EKVX): > 10 µM (inactive); GI50 (CAKI-1): 8.26 µM (inactive); GI50 (Malme-3M): > 10 µM (inactive); GI50 (RXF 393): 2.89 µM (inactive); GI50 (DU-145): > 10 µM (inactive); GI50 (MDA-N): 4.05 µM (inactive); GI50 (SF-268): 4.12 µM (inactive); GI50 (UACC-62): 5.75 µM (inactive); GI50 (OVCAR-8): 4.88 µM (inactive); GI50 (K562): 3.42 µM (inactive); GI50 (MOLT-4): 2.11 µM (inactive); GI50 (IGROV-1): > 10 µM (inactive); GI50 (PC-3): 2.53 µM (inactive); GI50 (SK-MEL-28): > 10 µM (inactive); GI50 (LOX IMVI): 1.33 µM (inactive); GI50 (T47D): 4.24 µM (inactive); GI50 (MDA-MB-231): 6.56 µM (inactive); GI50 (M14): 5.61 µM (inactive); GI50 (CCRF-CEM): 3.89 µM (inactive); GI50 (MCF7): 3.49 µM (inactive)

Which results are given for `N#Cc1ccc(/N=C(/NCC(=O)O)Nc2ccc3ccccc3c2)cc1`?
GI50 (HCC 2998): > 10 µM (inactive); GI50 (HL-60): > 10 µM (inactive); GI50 (HT-29): > 10 µM (inactive); GI50 (UACC-257): > 10 µM (inactive); GI50 (SK-MEL-5): > 10 µM (inactive); GI50 (786-0): > 10 µM (inactive); GI50 (SF-295): > 10 µM (inactive); GI50 (TK-10): > 10 µM (inactive); GI50 (SR): > 10 µM (inactive); GI50 (SK-OV-3): > 10 µM (inactive); GI50 (SNB-75): > 10 µM (inactive); GI50 (SW-620): > 10 µM (inactive); GI50 (HCT-15): > 10 µM; GI50 (A549): > 10 µM (inactive); GI50 (SN12C): > 10 µM (inactive); GI50 (KM12): > 10 µM (inactive); GI50 (HOP-62): > 10 µM (inactive); GI50 (RPMI-8226): > 10 µM (inactive); GI50 (NCI-H23): > 10 µM (inactive); GI50 (EKVX): > 10 µM (inactive); GI50 (CAKI-1): > 10 µM (inactive); GI50 (COLO 205): > 10 µM (inactive); GI50 (Malme-3M): > 10 µM (inactive); GI50 (RXF 393): > 10 µM (inactive); GI50 (DU-145): > 10 µM (inactive); GI50 (MDA-N): > 10 µM (inactive); GI50 (SF-268): > 10 µM (inactive); GI50 (UACC-62): > 10 µM (inactive); GI50 (OVCAR-8): > 10 µM (inactive); GI50 (K562): > 10 µM (inactive); GI50 (MOLT-4): > 10 µM (inactive); GI50 (IGROV-1): > 10 µM (inactive); GI50 (PC-3): > 10 µM (inactive); GI50 (SK-MEL-28): > 10 µM (inactive); GI50 (T47D): > 10 µM (inactive); GI50 (MDA-MB-231): > 10 µM (inactive); GI50 (M14): > 10 µM (inactive); GI50 (CCRF-CEM): > 10 µM (inactive); GI50 (MCF7): > 10 µM (inactive)
